Measurements from patent US9856247B2, “4-methyl-dihydropyrimidines for the treatment and prophylaxis of Hepatitis B virus infection” (Hoffmann-La Roche Inc., priority 2012, dated 2018).

Columns and labels:
HBV DNA = test: Anti-HBV activity in HepDE19 cells (HBV DNA dot-blot); format: cell-based, Hepatitis B virus (HBV); details: Hepatitis B virus, 120 h; HepDE19 cells, five days after compound treatment, concentration that inhibited HBV DNA by 50%; read-out: HepDe19 EC50
Text: Cells and culture conditions: HepDE19 (Haitao Guo et al, Journal of Virology, 81, November 2007, 12472-12484; Richeng Mao et al, Journal of Virology, 85, January 2011, 1048-1057) cells were derived from HepG2 (ATCC, American Type Culture Collection) cells through transfection with pTet-off plasmid (Clontech) that expresses the Tet-responsive transcriptional activator and pTREHBVDE plasmid in which HBV pgRNA expression is controlled by a CMV early promoter with a tetracycline-responsive element. The transfected cells were selected with G418 (also known as Genticin, purchased from Invitrogen). […] These cells were maintained in Dulbecco's modified Eagle's medium (DMEM)-F12 medium (Invitrogen) supplemented with 10% fetal bovine serum, 100 U/ml penicillin, and 100 μg/ml streptomycin, 0.5 mg/ml of G418 and 1 μg/ml tetracycline.
Anti-HBV activity and cytotoxicity: HepDE19 cells were seeded into 96-well plates (3×10^4 cells/well) with tetracycline-free medium and incubated overnight at 37° C. The test or control compounds were serially half-log diluted with medium and added into the plates (the final concentration of DMSO kept at 0.5% in each well). Five days after compound treatment, cells were washed with PBS and lysed with 50 mM Tris-1 mM EDTA-0.2% CA-630 (pH 8.0) at 37° C. for 20 min. After centrifugation to remove nuclei and other debris, the supernatant was transferred into a new plate and incubated with 2M NaOH/20×SSC (3M NaCl, 0.3M Sodium citrate, pH7.0) at rt for 30 min. Then the samples were transferred to nylon membrane and neutralized with 1M Tris (pH7.4)/2M NaCl. The presence of HBV DNA was detected by dot-blot with DIG-labeled HBV specific DNA probe and quantified by dot density. The compound concentrations that inhibited HBV DNA by 50% (EC50) were determined (See Table 1).

in vitro = details: human
Method: The transfected cells were selected with G418 (also known as Genticin, purchased from Invitrogen). […] These cells were maintained in Dulbecco's modified Eagle's medium (DMEM)-F12 medium (Invitrogen) supplemented with 10% fetal bovine serum, 100 U/ml penicillin, and 100 μg/ml streptomycin, 0.5 mg/ml of G418 and 1 μg/ml tetracycline.
To determine if the anti-HBV effect of compound is due to cytotoxicity, HepDE 19 cells (5×10^3 cells/well) were seeded into 96-well plates and compounds were treated as described above. […] Four hours after incubation at 37° C., the absorbance at wavelengths of 450 nm and 630 nm (OD450 and OD630) was recorded by a plate reader.

Row | Structure (SMILES) | EC50 (HBV DNA) | CC50 at 5 days (in vitro)
1 | COC(=O)C1=C(CN2CC(F)(F)CC2C(N)=O)NC(c2nccs2)=N[C@@]1(C)c1ccc(F)cc1 (stereo partly drawn) [Example 47, (S)-6-(2-carbamoyl-4,4-difluoro-pyrrolidin-1-ylmethyl)-4-(4-fluoro-phenyl)-4-methyl-2-thiazol-2-yl-1,4-dihydro-pyrimidine-5-carboxylic acid methyl ester] | 48 nM | ≥ 100 µM
2 | COC(=O)C1=C(CN2CCOC[C@H]2C(=O)OC)NC(c2nccs2)=NC1(C)c1ccc(F)c(F)c1 (stereo in doubt) [Example 15, 4-[(S)-6-(3,4-Difluoro-phenyl)-5-methoxycarbonyl-6-methyl-2-thiazol-2-yl-3,6-dihydro-pyrimidin-4-ylmethyl]-morpholine-3-carboxylic acid methyl ester] | 560 nM | > 100 µM
3 | COC(=O)C1=C(CN2CC(F)(F)C[C@H]2C(=O)O)NC(c2cc(F)cs2)=N[C@@]1(C)c1ccc(F)cc1 [Example 43, (S)-6-((S)-2-carboxy-4,4-difluoro-pyrrolidin-1-ylmethyl)-4-(4-fluoro-phenyl)-2-(4-fluoro-thiophen-2-yl)-4-methyl-1,4-dihydro-pyrimidine-5-carboxylic acid methyl ester] | 131 nM | ≥ 100 µM
4 | CCOC(=O)C1=C(CN2CC(F)(F)C[C@H]2C(=O)O)NC(c2nccs2)=N[C@@]1(C)c1ccc(F)c(F)c1 [Example 24, (S)-6-((S)-2-carboxy-4,4-difluoro-pyrrolidin-1-ylmethyl)-4-(3,4-difluoro-phenyl)-4-methyl-2-thiazol-2-yl-1,4-dihydro-pyrimidine-5-carboxylic acid ethyl ester] | 800 nM | ≥ 100 µM
5 | COC(=O)C1=C(CN2CC(F)(F)C[C@H]2C(N)=O)NC(c2nccs2)=N[C@@]1(C)c1ccc(F)cc1 [Example 48, (S)-6-((S)-2-carbamoyl-4,4-difluoro-pyrrolidin-1-ylmethyl)-4-(4-fluoro-phenyl)-4-methyl-2-thiazol-2-yl-1,4-dihydro-pyrimidine-5-carboxylic acid methyl ester] | 80 nM | ≥ 100 µM
6 | CC1(c2ccc(F)c(F)c2)N=C(c2nccs2)NC(CN2CCOC[C@H]2C(=O)O)=C1C#N (stereo partly drawn) [Example 22, (S)-4-[5-Cyano-6-(3,4-difluoro-phenyl)-6-methyl-2-thiazol-2-yl-3,6-dihydro-pyrimidin-4-ylmethyl]-morpholine-3-carboxylic acid] | 20400 nM | > 100 µM
7 | CCOC(=O)C1=C(CN2CC(F)(F)C[C@H]2C(=O)O)NC(c2nccs2)=N[C@]1(C)c1ccc(F)c(F)c1 [Example 28, (R)-6-((S)-2-carboxy-4,4-difluoro-pyrrolidin-1-ylmethyl)-4-(3,4-difluoro-phenyl)-4-methyl-2-thiazol-2-yl-1,4-dihydro-pyrimidine-5-carboxylic acid ethyl ester] | 7480 nM | ≥ 100 µM
8 | COC(=O)C1=C(CN2CC(F)(F)C[C@H]2C(=O)O)NC(c2sccc2F)=N[C@@]1(C)c1ccc(F)cc1 [Example 41, (S)-6-((S)-2-carboxy-4,4-difluoro-pyrrolidin-1-ylmethyl)-4-(4-fluoro-phenyl)-2-(3-fluoro-thiophen-2-yl)-4-methyl-1,4-dihydro-pyrimidine-5-carboxylic acid methyl ester] | 285 nM | ≥ 100 µM
9 | COC(=O)C1=C(CN2CC(F)(F)C[C@H]2C(=O)NS(C)(=O)=O)NC(c2nccs2)=N[C@@]1(C)c1ccc(F)cc1 [Example 51, (S)-6-((S)-4,4-difluoro-2-methanesulfonylaminocarbonyl-pyrrolidin-1-ylmethyl)-4-(4-fluoro-phenyl)-4-methyl-2-thiazol-2-yl-1,4-dihydro-pyrimidine-5-carboxylic acid methyl ester] | 18200 nM | 90 µM
10 | COC(=O)C1=C(CN2CC(F)(F)C[C@H]2C(=O)O)NC(c2cc(C)on2)=NC1(C)c1ccc(F)cc1 (stereo partly drawn) [Example 40, 6-((S)-2-carboxy-4,4-difluoro-pyrrolidin-1-ylmethyl)-4-(4-fluoro-phenyl)-4-methyl-2-(5-methyl-isoxazol-3-yl)-1,4-dihydro-pyrimidine-5-carboxylic acid methyl ester] | 5390 nM | ≥ 100 µM
11 | COC(=O)C1=C(CN2CCOC[C@H]2C(=O)OC)NC(c2nccs2)=NC1(C)c1ccc(F)cc1 (stereo partly drawn) [Example 5, 4-[6-(4-Fluoro-phenyl)-5-methoxycarbonyl-6-methyl-2-thiazol-2-yl-3,6-dihydro-pyrimidin-4-ylmethyl]-morpholine-(S)-3-carboxylic acid methyl ester] | 700 nM | > 100 µM
12 | COC(=O)C1=C(CN2CCOC[C@H]2CO)NC(c2nccs2)=NC1(C)c1ccc(F)cc1 (stereo partly drawn) [Example 53, 4-(4-fluoro-phenyl)-6-((R)-3-hydroxymethyl-morpholin-4-ylmethyl)-4-methyl-2-thiazol-2-yl-1,4-dihydro-pyrimidine-5-carboxylic acid methyl ester] | 1750 nM | ≥ 100 µM
13 | COC(=O)C1=C(CN2CC(F)(F)CC2CCCO)NC(c2nccs2)=N[C@@]1(C)c1ccc(F)cc1 (stereo partly drawn) [Example 56, (S)-6-[4,4-difluoro-2-(3-hydroxy-propyl)-pyrrolidin-1-ylmethyl]-4-(4-fluoro-phenyl)-4-methyl-2-thiazol-2-yl-1,4-dihydro-pyrimidine-5-carboxylic acid methyl ester] | 660 nM | 90 µM
14 | COC(=O)C1=C(CN2CC(F)(F)C[C@H]2C(=O)O)NC(c2ncc(Cl)s2)=N[C@@]1(C)c1ccc(F)cc1 [Example 33, (S)-6-((S)-2-carboxy-4,4-difluoro-pyrrolidin-1-ylmethyl)-2-(5-chloro-thiazol-2-yl)-4-(4-fluoro-phenyl)-4-methyl-1,4-dihydro-pyrimidine-5-carboxylic acid methyl ester] | 2070 nM | 80 µM
15 | COC(=O)C1=C(CN2CC(F)(F)C[C@H]2C(=O)N(C)C)NC(c2nccs2)=N[C@@]1(C)c1ccc(F)cc1 [Example 49, (S)-6-((S)-2-dimethylcarbamoyl-4,4-difluoro-pyrrolidin-1-ylmethyl)-4-(4-fluoro-phenyl)-4-methyl-2-thiazol-2-yl-1,4-dihydro-pyrimidine-5-carboxylic acid methyl ester] | 290 nM | ≥ 100 µM
16 | COC(=O)C1=C(CN(CC(=O)O)CC(F)(F)F)NC(c2nccs2)=N[C@@]1(C)c1ccc(F)cc1 [Example 44, (S)-6-{[carboxymethyl-(2,2,2-trifluoro-ethyl)-amino]-methyl}-4-(4-fluoro-phenyl)-4-methyl-2-thiazol-2-yl-1,4-dihydro-pyrimidine-5-carboxylic acid methyl ester] | 21500 nM | ≥ 100 µM
17 | CCOC(=O)C1=C(CN2CCOC[C@H]2C(=O)O)NC(c2nccs2)=NC1(C)c1ccc(F)c(F)c1 (stereo partly drawn) [Example 29, (S)-4-[6-(3,4-difluoro-phenyl)-5-ethoxycarbonyl-6-methyl-2-thiazol-2-yl-3,6-dihydro-pyrimidin-4-ylmethyl]-morpholine-3-carboxylic acid] | 3980 nM | ≥ 100 µM
18 | COC(=O)C1=C(CN2CC(F)(F)C[C@H]2c2nnn[nH]2)NC(c2nccs2)=N[C@@]1(C)c1ccc(F)cc1 [Example 58, (S)-6-[(S)-4,4-difluoro-2-(1H-tetrazol-5-yl)-pyrrolidin-1-ylmethyl]-4-(4-fluoro-phenyl)-4-methyl-2-thiazol-2-yl-1,4-dihydro-pyrimidine-5-carboxylic acid methyl ester] | 1020 nM | ≥ 100 µM
19 | C[C@@]1(c2ccc(F)cc2)N=C(c2nccs2)NC(CN2CC(F)(F)C[C@H]2C(=O)O)=C1C#N [Example 21, (S)-1-[(S)-5-Cyano-6-(4-fluoro-phenyl)-6-methyl-2-thiazol-2-yl-3,6-dihydro-pyrimidin-4-ylmethyl]-4,4-difluoro-pyrrolidine-2-carboxylic acid] | 21000 nM | > 100 µM
20 | COC(=O)C1=C(CN2CC(F)(F)C[C@H]2C(=O)OCCN(C)C)NC(c2nccs2)=N[C@@]1(C)c1ccc(F)cc1 [Example 46, (S)-6-[(S)-2-(2-dimethylamino-ethoxycarbonyl)-4,4-difluoro-pyrrolidin-1-ylmethyl]-4-(4-fluoro-phenyl)-4-methyl-2-thiazol-2-yl-1,4-dihydro-pyrimidine-5-carboxylic acid methyl ester] | 2130 nM | ≥ 100 µM
